Laboratory results published in patent publication US5202348A, “Thiarubrine antifungal agents” (The University of British Columbia, priority 1990, dated 1993).
≈ marks a conversion by molar mass, not a printed value. Like-named read-outs stand apart in the source and are kept apart here.

Columns and labels:
C. albicans [1] = experiment: Growth inhibition of C. albicans during 24 hours exposure; type: cell-based, Candida albicans; settings: 24 hours exposure; for IC50: Candida albicans
Description: (§1) Doses inhibiting growth in 50% were estimated by plotting concentration o
(§2) a logarithmic scale and percent of growth inhibition for 24 hours exposur
(§3) on a probability scale.

[2] = Growth inhibition of P815 mastocytoma during 24 hours exposure; type: cell-based, Mouse; settings: mouse, p815 cells
Description: (§4) P815 = Mouse mastocytoma […]
as §2, §3

P815 = experiment: as above; type: cell-based, Mouse; settings: 24 hours exposure
Description: as §4, §2, §3

[3] = Growth inhibition of L1210 during 24 hours exposure; type: cell-based, Mouse; settings: mouse, l1210 cells; Table 2; read-out: Toxicity Index, LC50 L1210 / C. albicans
Description: (§5) L1210 = Mouse lymphocytic leukemia
as §1, §2, §3

L1210 = experiment: as above; type: cell-based, Mouse; settings: Mus musculus, L1210; 24 hours exposure; Table 1; read-out: Concentration causing 50% growth inhibition
Description: as §5, §1, §2, §3

[4] = Growth inhibition of WEHI-3 during 24 hours exposure; type: cell-based, Mouse; settings: mouse, wehi-3 cells; Table 2; read-out: Toxicity Index, LC50 WEHI-3 / LC50 C. albicans
Description: (§6) WEHl3 = Mouse myelomonocyte
as §1, §2, §3

WEHI-3 = experiment: as above; type: cell-based, Mouse; settings: Mus musculus, WEHI-3; 24 hours exposure; Table 1; read-out: Concentration causing 50% growth inhibition
Description: as §6, §1, §2, §3

[5] = Growth inhibition of 3T3 during 24 hours exposure; type: cell-based, Mouse; settings: mouse, 3t3 cells; Table 2; read-out: Toxicity Index, LC50 3T3 / LC50 C. albicans
Description: (§7) 3T3 = Mouse fibroblasts
as §1, §2, §3

3T3 = experiment: Growth inhibition of 3T3 during 24 hours exposure; type: cell-based, Mouse; settings: Mus musculus, NIH3T3; 24 hours exposure; Table 1; read-out: Concentration causing 50% growth inhibition
Description: as §7, §1, §2, §3

E. coli [6] = experiment: Growth inhibition of E. coli during 24 hours exposure; type: cell-based, Escherichia coli; settings: 24 hours exposure, Table 4
Description: as §1, §2, §3

P. aeruginosa [7] = experiment: Growth inhibition of P. aeruginosa during 24 hours exposure; type: cell-based, Pseudomonas aeruginosa; settings: 24 hours exposure, Table 4
Description: as §1, §2, §3

Aspergillus fumigatus = experiment: Sensitivity of Aspergillus fumigatus, agar diffusion method; type: cell-based; settings: disc diameter 6 mm, read-out: Zone of Growth Inhibition
Text: Results were obtained by agar diffusion method. Disc diameter - 6 mm. -* = no zone over disc diameter.

C. albicans [8] = experiment: LC50 (24 hrs.), doses required to inhibit growth in 50%, different method; type: cell-based, Candida albicans; settings: for IC50: Candida albicans, 24 hrs.
Text: Doses Required to Inhibit Growth of C. albicans
in 50% During 24 hrs. (ng/ml)

P815 mastocytoma = experiment: as above; type: cell-based; settings: Mus musculus, P815, 24 h
Candida = experiment: Anti-Candida activity (summary); type: cell-based; settings: Table 14;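 also: Letter grades where Y means active and y means less active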
Aspergillus = experiment: Anti-Aspergillus activity (summary); type: cell-based; settings: Table 14;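 also: Letter grades where Y means active and y means less active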
bacteria = experiment: Anti-bacterial activity (summary); type: cell-based; settings: Table 14
C. albicans [9] = experiment: Growth inhibition of C. albicans during 24 hours exposure; type: cell-based, Candida albicans; settings: 24 hours exposure, Table 3
E. coli [10] = experiment: Growth inhibition of E. coli during 24 hours exposure; type: cell-based, Escherichia coli; settings: 24 hours exposure, Table 3
P. aeruginosa [11] = experiment: Growth inhibition of P. aeruginosa during 24 hours exposure; type: cell-based, Pseudomonas aeruginosa; settings: for Minimal concentration causing 100% growth inhibition: Table 3
murine cytomegalovirus = settings: only in presence of long wave ultraviolet radiation; cited from earlier work
Sindbis virus = settings: only in presence of long wave ultraviolet radiation; cited from earlier work
[12] = system: murine cytomegalovirus and Sindbis virus; settings: phototoxic activity; cited from earlier work
[13] = system: above organisms, as well as CHO cells; settings: UV-A light required; cited from earlier work
[14] = Table 7, read-out: LC50 (24 hrs.), dose required to inhibit growth in 50%
[15] = Table 13, read-out: Lc50 24 hrs.

CC#CC1=CC=C(C#CC#CC(O)CO)SS1 (stereo not drawn) [Thiarubrine E]
IC50 (C. albicans [1]; Table 1, read-out: Concentration causing 50% growth inhibition): 0.0014 µg/mL (≈ 0.00534 µM)
IC50 (C. albicans [1]; Table 4, read-out: Minimal concentration causing 50% growth inhibition): 0.0014 µg/mL (≈ 0.00534 µM)
selectivity ratio at 24 h ([2]; 50% growth inhibition, Table 4, read-out: Ratio of concentration needed to inhibit growth in 50%, P815 vs C. albicans): 17
selectivity ratio at 24 h ([2]; 100% growth inhibition, Table 3, read-out: Ratio of minimal concentration causing 100% growth inhibition, P815 line vs C. albicans): 65
selectivity ratio at 24 h ([2]; Table 2, read-out: Toxicity Index, LC50 P815 / LC50 C. albicans): 17
IC50 (P815; Mus musculus, P815, Table 1, read-out: Concentration causing 50% growth inhibition): 0.024 µg/mL (≈ 0.0915 µM)
IC100 (P815; Mus musculus, P815, Table 3, read-out: Minimal concentration causing 100% growth inhibition): 0.312 µg/mL
IC50 (P815; Mus musculus, P815, Table 4, read-out: Minimal concentration causing 50% growth inhibition): 0.024 µg/mL (≈ 0.0915 µM)
selectivity ratio at 24 h [3]: 19
IC50 (L1210): 0.027 µg/mL (≈ 0.103 µM)
selectivity ratio at 24 h [4]: 28
IC50 (WEHI-3): 0.04 µg/mL (≈ 0.152 µM)
selectivity ratio at 24 h [5]: 86
IC50 (3T3): 0.12 µg/mL (≈ 0.457 µM)
IC50 (E. coli [6]; Escherichia coli, read-out: Minimal concentration causing 50% growth inhibition): 0.015 µg/mL (≈ 0.0572 µM)
IC50 (P. aeruginosa [7]; Pseudomonas aeruginosa, read-out: Minimal concentration causing 50% growth inhibition): 0.28 µg/mL (≈ 1.07 µM)
zone of inhibition at 0.01 µg/disc (Aspergillus fumigatus; 10 ng/disc): 17 mm
zone of inhibition at 0.1 µg/disc (Aspergillus fumigatus; 100 ng/disc): 36 mm
zone of inhibition at 1 µg/disc (Aspergillus fumigatus; 1,000 ng/disc): 50 mm
zone of inhibition at 10 µg/disc (Aspergillus fumigatus; 10,000 ng/disc): 50 mm
Inhibition of growth of Candida albicans (C. albicans [8]): nanogram/ml range
IC50 (C. albicans [8]; [14]): 0.006 µg/mL (≈ 0.0229 µM)
IC50 (P815 mastocytoma; read-out: LC50 (24 hrs.), dose required to inhibit growth in 50%): 0.028 µg/mL (≈ 0.107 µM)
Anti-Candida (Candida): Y
Anti-Aspergillus (Aspergillus): Y
Anti-bacterial (bacteria): Y
MIC (C. albicans [9]; Candida albicans, read-out: Minimal concentration causing 100% growth inhibition): 0.0048 µg/mL (≈ 0.0183 µM)
MIC (E. coli [10]; Escherichia coli, read-out: Minimal concentration causing 100% growth inhibition): 0.019 µg/mL (≈ 0.0724 µM)
MIC (P. aeruginosa [11]; Pseudomonas aeruginosa, Table 3, read-out: Minimal concentration causing 100% growth inhibition): 0.625 µg/mL (≈ 2.38 µM)

c1csc(-c2ccc(-c3cccs3)s2)c1 [alpha-terthienyl]
Toxicity to virus (murine cytomegalovirus): extremely toxic
Toxicity to virus (Sindbis virus): extremely toxic
Order of potency [12]: alpha-terthienyl thiarubrine-A > phenylheptatriyne > ACBP-thiophene > thiophene-A

CC#CC1=CC=C(C#CC#CC(Cl)CO)SS1 (stereo not drawn) [Thiarubrine F]
Inhibition of growth of Candida albicans (C. albicans [8]): nanogram/ml range
IC50 (C. albicans [8]; [15]): 0.006 µg/mL (≈ 0.0214 µM)
IC50 (P815 mastocytoma; read-out: Lc50 24 hrs.): 0.14 µg/mL (≈ 0.499 µM)
Anti-Candida (Candida): Y
Anti-Aspergillus (Aspergillus): Y
Anti-bacterial (bacteria): Y

Clc1ccc(COC(Cn2ccnc2)c2ccc(Cl)cc2Cl)cc1 (stereo not drawn) [Econazole, reference compound]
IC50 (C. albicans [8]; [14]): 0.056 µg/mL (≈ 0.147 µM)

C=CC#CC#Cc1ccc(C#CC)s1 [thiophene A]
Phototoxicity [13]: phototoxic, requiring UV-A light for biological activity
Order of potency [12]: alpha-terthienyl thiarubrine-A > phenylheptatriyne > ACBP-thiophene > thiophene-A

CC#CC1=CC=C(C#CC#CC(O)CCl)SS1 (stereo not drawn) [Thiarubrine G]
Inhibition of growth of Candida albicans (C. albicans [8]): nanogram/ml range
IC50 (C. albicans [8]; [15]): 0.008 µg/mL (≈ 0.0285 µM)
IC50 (P815 mastocytoma; read-out: Lc50 24 hrs.): 0.09 µg/mL (≈ 0.321 µM)
Anti-Candida (Candida): Y
Anti-Aspergillus (Aspergillus): Y
Anti-bacterial (bacteria): Y

C=C/C=C/C#CC1=CC=C(C#CC)SS1 [Thiarubrine C, reference compound]
Anti-Candida (Candida): Y
Anti-Aspergillus (Aspergillus): Y
Anti-bacterial (bacteria): Y

Gentamycin [reference compound]
Minimal concentration causing 50% growth inhibition (E. coli [6]): 0.37 µg/mL
Minimal concentration causing 50% growth inhibition (P. aeruginosa [7]): 1.0 µg/mL
Minimal concentration causing 100% growth inhibition (E. coli [10]): 1.25 µg/mL
Minimal concentration causing 100% growth inhibition (P. aeruginosa [11]): 2.5 µg/mL

C=CC#CC#CC1=CC=C(C#CCO)SS1 [Thiarubrine H]
Inhibition of growth of Candida albicans (C. albicans [8]): nanogram/ml range
IC50 (C. albicans [8]; [15]): 0.004 µg/mL (≈ 0.0164 µM)
IC50 (P815 mastocytoma; read-out: Lc50 24 hrs.): 0.059 µg/mL (≈ 0.241 µM)
Anti-Candida (Candida): Y

CC#Cc1ccc(C#CC#CC(O)CO)s1 (stereo not drawn) [Thiophene E]
Minimal concentration causing 50% growth inhibition (C. albicans [1]; Table 4): 4.5 µg/mL
Minimal concentration causing 100% growth inhibition (P815; Table 3): > 5.0 µg/mL
Minimal concentration causing 50% growth inhibition (P815; Table 4): 4.0 µg/mL
Minimal concentration causing 50% growth inhibition (E. coli [6]): > 5.0 µg/mL
Minimal concentration causing 50% growth inhibition (P. aeruginosa [7]): > 5.0 µg/mL
Minimal concentration causing 100% growth inhibition (C. albicans [9]): > 5.0 µg/mL
Minimal concentration causing 100% growth inhibition (E. coli [10]): > 5.0 µg/mL
Minimal concentration causing 100% growth inhibition (P. aeruginosa [11]): > 5.0 µg/mL

C=CC#CC1=CC=C(C#CC#CC)SS1 [Thiarubrine B, 3 (pent-3-yn-1-ynyl) 6 (3-buten-1-ynyl)-1,2-dithiacyclohexa-3,5-diene, reference compound]
Anti-Candida (Candida): Y
Anti-Aspergillus (Aspergillus): Y
Anti-bacterial (bacteria): Y
